Source: patent US6350760B1, “Substituted piperidines as melanocortin-4 receptor agonists” (Merck & Co., Inc., priority 1999, dated 2002)
Marks after values point to notes of the source that are not given here.

Key:
[1] = target: T1, human MC-2R (Homo sapiens, UniProt Q01718); test: Membrane binding assay, competition with 125I-NDP-alpha-MSH; set-up: expressed in transfected cells; host or cells: L- or CHO-cells (membranes); details: human receptor; average of at least 3 determinations
Experimental: (§1) A. Binding Assay. The membrane binding assay was used to identify competitive inhibitors of ^125I-NDP-alpha-MSH binding to cloned human MCRs expressed in L- or CHO-cells.
(§2) Cell lines expressing melanocortin receptors were grown in T-180 flasks containing selective medium of the composition: 1 L Dulbecco's modified Eagles Medium (DMEM) with 4.5 g L-glucose, 25 mM Hepes, without sodium pyruvate, (Gibco/BRl); 100 ml 10% heat-inactivated fetal bovine serum (Sigma); 10 ml 10,000 unit/ml penicillin & 10,000 ug/ml streptomycin (Gibco/BRl); 10 ml 200 mM L-glutamine (Gibco/BRl); 1 mg/ml Geneticin (G418) (Gibco/BRl). The cells were grown at 37° C. with CO2 and humidity control until the desired cell density and cell number was obtained.
(§3) The medium was poured off and 10 mls/monolayer of enzyme-free dissociation media (Specialty Media Inc.) was added. The cells were incubated at 37° C. for 10 minutes or until cells sloughed off when flask was banged against hand.
(§4) The cells were harvested into 200 ml centrifuge tubes and spun at 1000 rpm, 4° C., for 10 min. […]
(§5) IC50's were determined in a competition binding assay with ^125I-NDP-alpha-MSH as ligand using crude membranes prepared from cell lines expressing the appropriate MC-R. Functional EC50's were determined by application of compound to intact cells followed by direct measurement of cAMP as described in the Biological Assays section above.

[2] = target: T2, human MC-5R (Homo sapiens, UniProt P33032); test: as above; details: human receptor; average of at least 3 determinations
T2 construct: expressed in transfected cells; host or cells: CHO- or L-cells or other eukaryotic cells
Experimental: as §1, §2, §3, §4, §5

[3] = target: T2, human MC-5R; test: Functional cell based cAMP assay
Description: (§6) B. Functional assay. Functional cell based assays were developed to discriminate melanocortin receptor agonists from antagonists.
(§7) Cells (for example, CHO- or L-cells or other eukaryotic cells) expressing a human melanocortin receptor (see e.g. Yang-YK; Ollmann-MM; Wilson-BD; Dickinson-C; Yamada-T; Barsh-GS; Gantz-I; Mol-Endocrinol. 1997 Mar; 11(3): 274-80) were dissociated from tissue culture flasks by rinsing with Ca and Mg free phosphate buffered saline (14190-136, Life Technologies, Gaithersburg, Md.) and detached following 5 minutes incubation at 37° C. with enzyme free dissociation buffer (S-014-B, Specialty Media, Lavellette, N.J.). Cells were collected by centrifugation and resuspended in Earle's Balanced Salt Solution (14015-069, Life Technologies, Gaithersburg, Md.) with additions of 10 mM HEPES pH 7.5, 5 mM MgCl2, 1 mM glutamine and 1 mg/ml bovine serum albumin. Cells were counted and diluted to 1 to 5×10^6/ml. The phosphodiesterase inhibitor 3-isobutyl-1-methylxanthine was added to cells to 0.6 mM.
(§8) Test compounds were diluted in dimethylsulfoxide (DMSO) (10^−5 to 10^−10 M) and 0.1 volume of compound solution was added to 0.9 volumes of cell suspension; the final DMSO concentration was 1%. After room temperature incubation for 45 min., cells were lysed by incubation at 100° C. for 5 min. to release accumulated cAMP.
(§9) cAMP was measured in an aliquot of the cell lysate with the Amersham (Arlington Heights, Ill.) cAMP detection assay (RPA556). The amount of cAMP production which resulted from an unknown compound was compared to that amount of cAMP produced in response to alpha-MSH at 10 μM which was defined as a 100% agonist.
as §5

[4] = target: T3, human MC-1R (Homo sapiens, UniProt Q01726); test: Functional cell based cAMP assay; details: cAMP relative to alpha-MSH at 10 μM defined as 100% agonist
T3 construct: expressed in transfected cells; host or cells: CHO- or L-cells or other eukaryotic cells
Description: as §6, §7, §8, §9, §5

[5] = target: T4, human MC-3R (Homo sapiens, UniProt P41968); test: Functional cell based cAMP assay; details: cAMP relative to alpha-MSH at 10 μM defined as 100% agonist
T4 construct: expressed in transfected cells; host or cells: CHO- or L-cells or other eukaryotic cells
Description: as §6, §7, §8, §9, §5

[6] = target: T1, human MC-2R; test: Functional cell based cAMP assay; set-up: expressed in transfected cells; host or cells: L- or CHO-cells; details: @ 10 μM; cAMP relative to alpha-MSH defined as 100% agonist
Description: as §6
as §7, with “The phosphodiesterase inhibitor 3-isobutyl-1-methylxanthine was added to cells to 0.6 mM.” left out
cAMP was measured in an aliquot of the cell lysate with the Amersham (Arlington Heights, Ill.) cAMP detection assay (RPA556). […]
as §5

[7] = system: conscious rat model of reflexogenic erections; test: Rat ex copula assay, conscious rat model of reflexogenic erections; assay type: in vivo; details: for penile erections, % Increase from Vehicle or Baseline: rats; for efficacy of reference drugs in conscious rat model of reflexogenic erections: positive reference controls
Experimental: Sexually mature male Caesarian Derived Sprague Dawley (CD) rats (over 60 days old) are used with the suspensory ligament surgically removed to prevent retraction of the penis back into the penile sheath during the ex copula evaluations. Animals receive food and water ad lib and are kept on a normal light/dark cycle. Studies are conducted during the light cycle.
1) Conditioning to Supine Restraint for Ex Copula Reflex Tests. This conditioning takes ˜4 days. Day 1, the animals are placed in a darkened restrainer and left for 15-30 minutes. Day 2, the animals are restrained in a supine position in the restrainer for 15-30 minutes. Day 3, the animals are restrained in the supine position with the penile sheath retracted for 15-30 minutes. Day 4, the animals are restrained in the supine position with the penile sheath retracted until penile responses are observed. Some animals require additional days of conditioning before they are completely acclimated to the procedures; non-responders are removed from further evaluation. After any handling or evaluation animals are given a treat to ensure positive reinforcement.
2) Ex Copula Reflex Tests. Rats are gently restrained in a supine position with their anterior torso placed inside a cylinder of adequate size to allow for normal head and paw grooming. For a 400-500 gram rat, the diameter of the cylinder is approximately 8 cm. The lower torso and hind limbs are restrained with a non-adhesive material (vetrap). An additional piece of vetrap with a hole in it, through which the glans penis will be passed, is fastened over the animal to maintain the preputial sheath in a retracted position. Penile responses will be observed, typically termed ex copula genital reflex tests. Typically, a series of penile erections will occur spontaneously within a few minutes after sheath retraction. The types of normal reflexogenic erectile responses include elongation, engorgement, cup and flip. An elongation is classified as an extension of the penile body. Engorgement is a dilation of the glans penis. A cup is defined as an intense erection where the distal margin of the glans penis momentarily flares open to form a cup. A flip is a dorsiflexion of the penile body.
Baseline and or vehicle evaluations are conducted to determine how and if an animal will respond. Some animals have a long duration until the first response while others are non-responders altogether. During this baseline evaluation latency to first response, number and type of responses are recorded. The testing time frame is 15 minutes after the first response.
[…] All evaluations are videotaped and scored later. Data are collected and analyzed using paired 2 tailed t-tests to compared baseline and/or vehicle evaluations to drug treated evaluations for individual animals. Groups of a minimum of 4 animals are utilized to reduce variability.
Positive reference controls are included in each study to assure the validity of the study. Animals can be dosed by a number of routes of administration depending on the nature of the study to be performed. The routes of administration includes intravenous (IV), intraperitoneal (IP), subcutaneous (SC) and intracerebral ventricular (ICV).
In this non-random crossover model, rats were placed in the supine position with the preputial sheath retracted to initiate a reflex arc. The number of erections was counted in the 15 minute period following the first erection.

[8] = system: erectile dysfunction; details: cited from earlier work; for duration of effect / onset of action: after an oral dose, men; for proportion of men/patients with adequate response: oral, erectile dysfunction patients
[9] = system: psychogenic erectile dysfunction; details: cited from earlier work
[10] = system: animal feeding models (NPY, ob/ob, agouti, fasted); details: injected intracerebroventricularly (ICV) in rodents; cited from earlier work
[11] = in vivo; cited from earlier work

T2 sequence (P33032 whole entry): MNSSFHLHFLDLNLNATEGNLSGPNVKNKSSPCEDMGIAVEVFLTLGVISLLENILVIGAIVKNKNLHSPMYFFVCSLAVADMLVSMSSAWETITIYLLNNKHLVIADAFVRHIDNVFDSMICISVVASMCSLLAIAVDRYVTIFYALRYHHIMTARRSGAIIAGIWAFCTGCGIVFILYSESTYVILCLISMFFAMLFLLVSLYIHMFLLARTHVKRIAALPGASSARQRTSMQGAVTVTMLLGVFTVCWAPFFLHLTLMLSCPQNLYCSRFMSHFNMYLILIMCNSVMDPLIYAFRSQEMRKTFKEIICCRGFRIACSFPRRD
T1 sequence (Q01718 whole entry): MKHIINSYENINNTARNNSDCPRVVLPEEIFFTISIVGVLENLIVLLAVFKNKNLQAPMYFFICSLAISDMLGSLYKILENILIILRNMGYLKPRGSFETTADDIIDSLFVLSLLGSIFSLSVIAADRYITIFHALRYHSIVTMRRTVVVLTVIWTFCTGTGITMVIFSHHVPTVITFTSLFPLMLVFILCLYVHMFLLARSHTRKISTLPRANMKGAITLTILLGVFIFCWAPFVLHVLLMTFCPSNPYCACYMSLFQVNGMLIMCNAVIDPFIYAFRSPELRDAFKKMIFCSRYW
T4 sequence (P41968 whole entry): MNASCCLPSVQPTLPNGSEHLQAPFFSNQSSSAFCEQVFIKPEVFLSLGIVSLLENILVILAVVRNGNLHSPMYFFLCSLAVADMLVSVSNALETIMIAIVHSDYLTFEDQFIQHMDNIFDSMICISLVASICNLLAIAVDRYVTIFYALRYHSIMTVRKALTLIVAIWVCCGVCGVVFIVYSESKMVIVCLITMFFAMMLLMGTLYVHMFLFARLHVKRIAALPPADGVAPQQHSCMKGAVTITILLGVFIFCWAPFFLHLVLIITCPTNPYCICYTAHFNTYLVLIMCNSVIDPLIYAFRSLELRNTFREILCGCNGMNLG
T3 sequence (Q01726 whole entry): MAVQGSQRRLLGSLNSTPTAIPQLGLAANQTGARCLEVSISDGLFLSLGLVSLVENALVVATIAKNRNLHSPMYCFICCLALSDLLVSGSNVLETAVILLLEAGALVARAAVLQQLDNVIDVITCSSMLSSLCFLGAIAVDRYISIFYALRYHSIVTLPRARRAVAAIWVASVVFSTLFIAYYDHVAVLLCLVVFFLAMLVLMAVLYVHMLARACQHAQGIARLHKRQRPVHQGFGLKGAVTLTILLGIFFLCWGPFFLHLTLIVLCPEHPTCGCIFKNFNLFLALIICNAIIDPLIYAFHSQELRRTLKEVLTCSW

## O=C(N[C@H](Cc1ccc(Cl)cc1)C(=O)N1CCC(Cn2cncn2)(C2CCCCC2)CC1)[C@H]1Cc2ccccc2CN1 [Example 2]
[1]
  IC50: > 10000 nM
[2]
  IC50: 230 nM
[3]; cAMP relative to alpha-MSH at 10 μM defined as 100% agonist
  Functional Activity, agonist efficacy, MC-5R: 58%
[3]; human receptor, cAMP, average of at least 3 determinations
  EC50: 530 nM
[4]
  Functional Activity, agonist efficacy, MC-1R: 84%
[5]
  Functional Activity, agonist efficacy, MC-3R: 29%
[6]
  Functional Activity, agonist efficacy, MC-2R: 0% @ 10 μM
[7]; administered by the intravenous (IV) route or by the oral (PO) route
  number of erections in conscious rat model of reflexogenic erections: effective in significantly increasing the number of erections
[7]; 0.3 mg/kg IV, placed supine 60 min after dosing, P = 0.05
  penile erections, % Increase from Vehicle or Baseline: 15* %
[7]; 1.0 mg/kg IV, placed supine 0 min after dosing, P = 0.05
  penile erections, % Increase from Vehicle or Baseline: 31%
[7]; 1.0 mg/kg IV, placed supine 60 min after dosing, P = 0.05
  penile erections, % Increase from Vehicle or Baseline: 35%
[7]; 5.0 mg/kg IV, placed supine 60 min after dosing, P = 0.01
  penile erections, % Increase from Vehicle or Baseline: 50** %
[7]; 10 mg/kg IV, placed supine 0 min after dosing, P = 0.01
  penile erections, % Increase from Vehicle or Baseline: 45%
[7]; 10 mg/kg IV, placed supine 60 min after dosing, P = 0.01
  penile erections, % Increase from Vehicle or Baseline: 38%
[7]; 20 mg/kg PO, placed supine 60 min after dosing, P = 0.01
  penile erections, % Increase from Vehicle or Baseline: 24** %
[7]; 20 μG ICV, placed supine 0 min after dosing, P = 0.05
  penile erections, % Increase from Vehicle or Baseline: 41* %

## CN1CCc2cccc3c2[C@H]1Cc1ccc(O)c(O)c1-3 [apomorphine]
[7]
  efficacy of reference drugs in conscious rat model of reflexogenic erections: effective

## Cc1ccc(N(CC2=NCCN2)c2cccc(O)c2)cc1 [phentolamine]
[8]
  duration of effect: 2 h
  onset of action: 5 to 30 min
  proportion of men/patients with adequate response: 35-40%

## CCCc1nn(C)c2c(=O)[nH]c(-c3cc(S(=O)(=O)N4CCN(C)CC4)ccc3OCC)nc12 [sildenafil]
[8]
  duration of effect: about 4 hours
  onset of action: 30 to 60 min
  proportion of men/patients with adequate response: about 70%
[8]; clinical use
  adverse effects associated with clinical use: headache, flushing, dyspepsia, and “abnormal vision
[7]
  efficacy of reference drugs in conscious rat model of reflexogenic erections: effective

## Ac-Nle-c[Asp-His-DPhe-Arg-Trp-Lys]-NH2 [MT-II]
[9]; in vivo
  adverse reactions observed: nausea, flushing, loss of appetite, stretching, and yawning
[9]; injected intramuscularly or subcutaneously to males with psychogenic erectile dysfunction
  response rate: 75%
[9]; men
  duration of action: approximately 2.5 hours
  time to onset of erection: 10 to 20 min
[10]
  effect on food intake: reduces food intake
[11]
  absorption into the systemic circulation by the oral route: not absorbed into the systemic circulation

## SHU-9119
[10]
  effect on food intake: reverses this effect and can induce hyperphagia
